#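 Step 1: Grow cells in 96-well plates. Step 2: Expose to compound for 48 hours at 5 concentrations. Step 3: Interpolate endpoints linearly; if unreached, use highest concentration. At the GI50, growth is halved.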 The source made the active and inactive calls. Cut-off read from the data, not from the text of the source: active = GI50 up to about 1.1 µM and inactive = higher.
# Columns and labels:
# Assay in all cases: DTP human tumour cell line panel, 48 h
# [1] = system: COLO 205
# [2] = system: LOX IMVI
# [3] = system: OVCAR-8
# [4] = system: OVCAR-3
# [5] = system: RPMI-8226
# [6] = system: OVCAR-4
# [7] = system: Malme-3M
# [8] = system: KM12
# [9] = system: CCRF-CEM
# [10] = system: SN12C
# [11] = system: OVCAR-5
# [12] = system: UACC-257
# [13] = system: SK-MEL-28
# [14] = system: ACHN
# [15] = system: UO-31
# [16] = system: RXF 393
# [17] = system: K562
# [18] = system: SK-OV-3
# [19] = system: Hs-578T
# [20] = system: NCI/ADR-RES
# [21] = system: MDA-MB-231
# [22] = system: NCI-H226
# [23] = system: T47D
# [24] = system: NCI-H522
# [25] = system: SW-620
# [26] = system: MOLT-4
# [27] = system: HCT-116
# [28] = system: 786-0
# [29] = system: SK-MEL-2
# [30] = system: CAKI-1
# [31] = system: HCC 2998
# [32] = system: MDA-N
# [33] = system: M14
# [34] = system: HL-60
# [35] = system: SNB-75
# [36] = system: U-251
# [37] = system: SF-539
# [38] = system: HOP-62
# [39] = system: A498
# [40] = system: EKVX
# [41] = system: TK-10
# [42] = system: PC-3
# [43] = system: IGROV-1
# [44] = system: SNB-19
# [45] = system: HT-29
# [46] = system: SF-268
# [47] = system: MCF7
# [48] = system: SK-MEL-5
# [49] = system: NCI-H460
# [50] = system: HOP-92
# [51] = system: HCT-15
# [52] = system: MDA-MB-435
# [53] = system: A549
# [54] = system: NCI-H23
# [55] = system: SF-295
# [56] = system: BT-549
# [57] = system: DU-145
# [58] = system: SR
# [59] = system: UACC-62
smiles,measurement,setting,value
CCCCCCCCCCCCOP(=O)(O)OP(=O)(O)OCC1OC(n2cc(C)c(=O)[nH]c2=O)CC1O (configuration not stated),GI50,[1],> 100 µM (inactive)
same,GI50,[2],> 100 µM (inactive)
same,GI50,[3],> 100 µM (inactive)
same,GI50,[4],> 100 µM (inactive)
same,GI50,[5],> 100 µM (inactive)
same,GI50,[6],> 100 µM (inactive)
same,GI50,[7],> 100 µM (inactive)
same,GI50,[8],> 100 µM (inactive)
same,GI50,[9],> 100 µM (inactive)
same,GI50,[10],> 100 µM (inactive)
same,GI50,[11],> 100 µM (inactive)
same,GI50,[12],> 100 µM (inactive)
same,GI50,[13],> 100 µM (inactive)
same,GI50,[14],> 100 µM (inactive)
same,GI50,[15],> 100 µM (inactive)
same,GI50,[16],> 100 µM (inactive)
same,GI50,[17],> 100 µM (inactive)
same,GI50,[18],> 100 µM (inactive)
same,GI50,[19],> 100 µM (inactive)
same,GI50,[20],> 100 µM (inactive)
same,GI50,[21],> 100 µM (inactive)
same,GI50,[22],> 100 µM (inactive)
same,GI50,[23],> 100 µM (inactive)
same,GI50,[24],> 100 µM (inactive)
same,GI50,[25],> 100 µM (inactive)
same,GI50,[26],> 100 µM (inactive)
same,GI50,[27],> 100 µM (inactive)
same,GI50,[28],> 100 µM (inactive)
same,GI50,[29],> 100 µM (inactive)
same,GI50,[30],> 100 µM (inactive)
same,GI50,[31],> 100 µM (inactive)
same,GI50,[32],> 100 µM (inactive)
same,GI50,[33],> 100 µM (inactive)
same,GI50,[34],> 100 µM (inactive)
same,GI50,[35],> 100 µM (inactive)
same,GI50,[36],> 100 µM (inactive)
same,GI50,[37],> 100 µM (inactive)
same,GI50,[38],> 100 µM (inactive)
same,GI50,[39],> 100 µM (inactive)
same,GI50,[40],> 100 µM (inactive)
same,GI50,[41],> 100 µM (inactive)
same,GI50,[42],> 100 µM (inactive)
same,GI50,[43],> 100 µM (inactive)
same,GI50,[44],> 100 µM (inactive)
same,GI50,[45],> 100 µM (inactive)
same,GI50,[46],> 100 µM (inactive)
same,GI50,[47],> 100 µM (inactive)
same,GI50,[48],> 100 µM (inactive)
same,GI50,[49],> 100 µM (inactive)
same,GI50,[50],> 100 µM (inactive)
same,GI50,[51],> 100 µM
same,GI50,[52],> 100 µM (inactive)
same,GI50,[53],> 100 µM (inactive)
same,GI50,[54],> 100 µM (inactive)
same,GI50,[55],> 100 µM (inactive)
same,GI50,[56],> 100 µM (inactive)
Nc1nc(N)c2c(n1)CCC(S(=O)(=O)c1ccc3ccccc3c1)C2 (configuration not stated),GI50,[1],8.38 µM (inactive)
same,GI50,[2],0.706 µM (active)
same,GI50,[3],5.26 µM (inactive)
same,GI50,[4],10.9 µM (inactive)
same,GI50,[5],12.5 µM (inactive)
same,GI50,[7],2.24 µM (inactive)
same,GI50,[8],6.08 µM (inactive)
same,GI50,[9],5.2 µM (inactive)
same,GI50,[10],7 µM (inactive)
same,GI50,[11],87.7 µM (inactive)
same,GI50,[12],12.5 µM (inactive)
same,GI50,[13],27.7 µM (inactive)
same,GI50,[14],3.85 µM (inactive)
same,GI50,[15],5.45 µM (inactive)
same,GI50,[18],33.3 µM (inactive)
same,GI50,[20],43.8 µM (inactive)
same,GI50,[21],42.4 µM (inactive)
same,GI50,[22],39.3 µM (inactive)
same,GI50,[23],14.5 µM (inactive)
same,GI50,[25],59.3 µM (inactive)
same,GI50,[26],2 µM (inactive)
same,GI50,[27],11.6 µM (inactive)
same,GI50,[28],23.1 µM (inactive)
same,GI50,[30],6 µM (inactive)
same,GI50,[31],13.6 µM (inactive)
same,GI50,[32],0.766 µM (active)
same,GI50,[33],12.6 µM (inactive)
same,GI50,[34],13.5 µM (inactive)
same,GI50,[36],2.45 µM (inactive)
same,GI50,[37],3.8 µM (inactive)
same,GI50,[38],9.51 µM (inactive)
same,GI50,[39],24.9 µM (inactive)
same,GI50,[40],31.8 µM (inactive)
same,GI50,[41],4.57 µM (inactive)
same,GI50,[42],17.6 µM (inactive)
same,GI50,[57],9.59 µM (inactive)
same,GI50,[44],3.61 µM (inactive)
same,GI50,[45],1.26 µM (inactive)
same,GI50,[46],11 µM (inactive)
same,GI50,[47],10.1 µM (inactive)
same,GI50,[48],2.55 µM (inactive)
same,GI50,[49],0.891 µM (active)
same,GI50,[50],9.1 µM (inactive)
same,GI50,[58],4.08 µM (inactive)
same,GI50,[51],2.38 µM
same,GI50,[52],0.714 µM (active)
same,GI50,[53],0.54 µM (active)
same,GI50,[54],2.53 µM (inactive)
same,GI50,[55],1.66 µM (inactive)
same,GI50,[56],6.65 µM (inactive)
CN(C)c1nc(N(C)C)nc(N(C)C23CC4CC(CC(C4)C2)C3)n1,GI50,[1],15.1 µM (inactive)
same,GI50,[3],32.1 µM (inactive)
same,GI50,[4],17.1 µM (inactive)
same,GI50,[5],23.7 µM (inactive)
same,GI50,[6],44.8 µM (inactive)
same,GI50,[7],33 µM (inactive)
same,GI50,[8],44.5 µM (inactive)
same,GI50,[9],22.4 µM (inactive)
same,GI50,[11],21.4 µM (inactive)
same,GI50,[12],34.3 µM (inactive)
same,GI50,[13],46.5 µM (inactive)
same,GI50,[14],41.3 µM (inactive)
same,GI50,[15],61.1 µM (inactive)
same,GI50,[16],20 µM (inactive)
same,GI50,[17],49.3 µM (inactive)
same,GI50,[18],17.9 µM (inactive)
same,GI50,[20],> 100 µM (inactive)
same,GI50,[21],23.8 µM (inactive)
same,GI50,[22],32.6 µM (inactive)
same,GI50,[23],31.4 µM (inactive)
same,GI50,[24],16.9 µM (inactive)
same,GI50,[25],34.4 µM (inactive)
same,GI50,[27],20.5 µM (inactive)
same,GI50,[28],40.5 µM (inactive)
same,GI50,[29],25.1 µM (inactive)
same,GI50,[30],> 100 µM (inactive)
same,GI50,[31],39.6 µM (inactive)
same,GI50,[32],21 µM (inactive)
same,GI50,[33],33.3 µM (inactive)
same,GI50,[35],24.3 µM (inactive)
same,GI50,[36],30.1 µM (inactive)
same,GI50,[37],31.8 µM (inactive)
same,GI50,[38],24 µM (inactive)
same,GI50,[39],> 100 µM (inactive)
same,GI50,[40],32 µM (inactive)
same,GI50,[42],24.5 µM (inactive)
same,GI50,[57],41.1 µM (inactive)
same,GI50,[43],17.1 µM (inactive)
same,GI50,[44],31.7 µM (inactive)
same,GI50,[46],39.5 µM (inactive)
same,GI50,[47],37.6 µM (inactive)
same,GI50,[59],56.8 µM (inactive)
same,GI50,[49],53.1 µM (inactive)
same,GI50,[50],21.8 µM (inactive)
same,GI50,[58],39.1 µM (inactive)
same,GI50,[51],> 100 µM
same,GI50,[52],40.2 µM (inactive)
same,GI50,[53],39.3 µM (inactive)
same,GI50,[54],13.4 µM (inactive)
same,GI50,[55],18.4 µM (inactive)
same,GI50,[56],27.7 µM (inactive)

# From ChEMBL document CHEMBL1201862, “PubChem BioAssay data set” (2004)
